In brackets after ≈: the same amount, converted by molar mass. Like-named read-outs stand apart in the source and are kept apart here.
Assays:
[1] = tested on: Gram-positive and Gram-negative bacteria; conditions: stated as known; cited from earlier work
[2] = tested on: Staphylococcus aureus Russell; assay: minimum inhibitory concentration, agar dilution assay; type: cell-based; conditions: agar dilution, 35° C., 20 hours, read-out: minimum inhibitory concentration
How it was run: (§1)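 Two-fold compound dilutions were incorporated into heart infusion agar. Plates were inoculated with overnight Trypto-Soy broth cultures (35 °C, 18-20 h) diluted to about 10^8 cells/ml. After 20 h at 35 °C, MIC was taken as the lowest concentration with no growth.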

[3] = tested on: Pseudomonas aeruginosa IFO3445; assay: as above; type: cell-based; conditions: IFO3445, agar dilution, 35° C., 20 hours, read-out: minimum inhibitory concentration
How it was run: as §1

[4] = tested on: Staphylococcus aureus FDA 209P; assay: as above; type: cell-based; conditions: FDA209P, read-out: minimum inhibitory concentration
How it was run: as §1

Escherichia coli RGN 823 = assay: as above; type: cell-based; conditions: RGN823, agar dilution, 35° C., 20 hours, read-out: minimum inhibitory concentration
How it was run: as §1

Serratia marcescens T55 = assay: as above; type: cell-based; conditions: T55, agar dilution, 35° C., 20 hours, read-out: minimum inhibitory concentration
How it was run: as §1

Providencia sp. P8 = assay: as above; type: cell-based; conditions: SP.P8, agar dilution, 35° C., 20 hours, read-out: minimum inhibitory concentration
How it was run: as §1

Serratia marcescens S18 = assay: as above; type: cell-based; conditions: S18, agar dilution, 35° C., 20 hours, read-out: minimum inhibitory concentration
How it was run: as §1

Sarcina lutea = assay: as above; type: cell-based; conditions: Micrococcus luteus, read-out: minimum inhibitory concentration
How it was run: as §1

Proteus vulgaris GN76 = assay: as above; type: cell-based; conditions: GN76, agar dilution, 35° C., 20 hours, read-out: minimum inhibitory concentration
How it was run: as §1

Proteus mirabilis P6 = assay: as above; type: cell-based; conditions: P6, agar dilution, 35° C., 20 hours, read-out: minimum inhibitory concentration
How it was run: as §1

Alcaligenes faecalis A 1 = assay: as above; type: cell-based; conditions: A1, agar dilution, 35° C., 20 hours, read-out: minimum inhibitory concentration
How it was run: as §1

Proteus sp. P22 = assay: as above; type: cell-based; conditions: agar dilution, 35° C., 20 hours; read-out: minimum inhibitory concentration
How it was run: as §1

[5] = tested on: Enterobacter aerogenes E19; assay: as above; type: cell-based; conditions: Klebsiella aerogenes, E19; agar dilution, 35° C., 20 hours; read-out: minimum inhibitory concentration
How it was run: as §1

[6] = tested on: Staphylococcus epidermidis; assay: as above; type: cell-based; conditions: read-out: minimum inhibitory concentration
How it was run: as §1

[7] = tested on: Citrobacter freundii GN 346; assay: as above; type: cell-based; conditions: GN346, agar dilution, 35° C., 20 hours, read-out: minimum inhibitory concentration
How it was run: as §1

[8] = tested on: Klebsiella pneumoniae K-13; assay: as above; type: cell-based; conditions: K13, agar dilution, 35° C., 20 hours, read-out: minimum inhibitory concentration
How it was run: as §1

[9] = tested on: Bacillus subtilis ATCC 6633; assay: as above; type: cell-based; conditions: read-out: minimum inhibitory concentration
How it was run: as §1

Enterobacter cloacae 45 = assay: as above; type: cell-based; conditions: Enterobacter cloacae, 45; agar dilution, 35° C., 20 hours; read-out: minimum inhibitory concentration
How it was run: as §1

[10] = tested on: Staphylococcus aureus Smith; assay: as above; type: cell-based; conditions: agar dilution, 35° C., 20 hours, read-out: minimum inhibitory concentration
How it was run: as §1

Escherichia coli K-12 = assay: as above; type: cell-based; conditions: read-out: minimum inhibitory concentration
How it was run: as §1

Enterobacter sp. E8 = assay: as above; type: cell-based; conditions: SP.E8, agar dilution, 35° C., 20 hours, read-out: minimum inhibitory concentration
How it was run: as §1

[11] = tested on: Comamonas terrigena B-996; assay: as above; type: cell-based; conditions: read-out: minimum inhibitory concentration
How it was run: as §1

Proteus rettgeri P7 = assay: as above; type: cell-based; conditions: Providencia rettgeri, P7; agar dilution, 35° C., 20 hours; read-out: minimum inhibitory concentration
How it was run: as §1

[12] = tested on: Pseudomonas aeruginosa NCTC10490; assay: as above; type: cell-based; conditions: NCTC10490, agar dilution, 35° C., 20 hours, read-out: minimum inhibitory concentration
How it was run: as §1

[13] = tested on: Alcaligenes faecalis B326; assay: as above; type: cell-based; conditions: read-out: minimum inhibitory concentration
How it was run: as §1

solubility = type: physicochemical
[14] = tested on: Staphylococcus aureus Smith strain; assay: Infection treating test; type: in vivo, Staphylococcus aureus (in ddy male mice); conditions: sc, 2 h, mice infected intraperitoneally, 5×10^5 cells per mouse, subcutaneous, two hours after infection, read-out: CD50 (the source's name)
Description: The in vivo activities of the compounds of formula (I-d) were determined by using mice (five per group, ddy male mice, Shizuoka) which had been intraperitoneally infected with Staphylococcus aureus Smith strain in an amount of 5×10^5 cells per mouse. Two hours after the infection, an injection containing a sodium salt of each of the compounds of formula (I-d) was subcutaneously administered to the mice.

[15] = Test for concentration in blood (plasma of mouse, bioassay); type: in vivo; conditions: sc, subcutaneous, 2 mg/mouse, average of five mice
Description: Typical species of the compounds of formula (I-d) were each administered subcutaneously to five mice in a dose of 2 mg. After 5 minutes from the administration, a small amount of blood was periodically drawn from the eyes of the mice into a heparinized capillary tube, and centrifuged. The concentration of the compound in the supernatant liquid (plasma) was determined by a bioassay method using Comamonas terrigena B-996.

[16] = agar dilution, 35° C., 20 hours
[17] = ATCC6633, agar dilution, 35° C., 20 hours
[18] = B996, agar dilution, 35° C., 20 hours

In the case of `Cc1nnc(SCC2=C(C(=O)O)N3C(=O)[C@@H](NC(=O)Cn4cnnn4)[C@H]3SC2)s1` [CEZ, cephazolin, reference compound], the “effectiveness against Pseudomonas aeruginosa and Serratia, Proteus, Klebsiella, Enterobacter” value [1] is given as “known to be effective against Pseudomonas aeruginosa and microorganisms of the genus Serratia, Proteus, Klebsiella, and Enterobacter”, the MIC [2] is given as 0.2 µg/mL (≈ 0.44 µM) and the MIC [3] is given as over 200 µg/mL. The MIC [4, 16] was 0.1 µg/mL (≈ 0.22 µM), the MIC (Escherichia coli RGN 823) was 200 µg/mL (≈ 440 µM) and the MIC (Serratia marcescens T55) was over 200 µg/mL. For the same molecule, the MIC (Providencia sp. P8) was 100 µg/mL (≈ 220 µM), the MIC (Serratia marcescens S18) was over 200 µg/mL and the MIC (Sarcina lutea; [16]) was 0.39 µg/mL (≈ 0.858 µM). For the same molecule, the MIC (Proteus vulgaris GN76) was over 200 µg/mL, the MIC (Proteus mirabilis P6) was 6.25 µg/mL (≈ 13.8 µM) and the MIC (Alcaligenes faecalis A 1) was 3.13 µg/mL (≈ 6.89 µM). It also gave an MIC (Proteus sp. P22) of over 200 µg/mL, an MIC [5] of over 200 µg/mL and an MIC [6, 16] of 0.1 µg/mL (≈ 0.22 µM). For the same molecule, the MIC [7] was over 200 µg/mL, the MIC [8] was 200 µg/mL (≈ 440 µM) and the MIC [9, 17] was 0.2 µg/mL (≈ 0.44 µM). It also gave an MIC (Enterobacter cloacae 45) of over 200 µg/mL, an MIC [10] of 0.2 µg/mL (≈ 0.44 µM) and an MIC (Escherichia coli K-12; K12, 20 h) of 1.56 µg/mL (≈ 3.43 µM). For the same molecule, the MIC (Enterobacter sp. E8) was 3.13 µg/mL (≈ 6.89 µM), the MIC [11, 18] was 0.2 µg/mL (≈ 0.44 µM) and the MIC (Proteus rettgeri P7) was over 200 µg/mL. The MIC [12] was over 200 µg/mL.
In the case of `CCCCSC1=C(C(=O)O)N2C(=O)C(C(C)C)C2C1` (stereo not drawn) [R1 CH3, R21 (CH2CH3)3], the MIC [4, 16] is reported as 0.48 µg/mL (≈ 1.69 µM), the MIC ([13]; B326, agar dilution, 35° C., 20 hours) is reported as 20 µg/mL (≈ 70.6 µM) and the MIC (Sarcina lutea; [16]) is reported as 7.5 µg/mL (≈ 26.5 µM). The MIC [6, 16] was 0.12 µg/mL (≈ 0.423 µM), the MIC [9, 17] was 15 µg/mL (≈ 52.9 µM) and the MIC [11, 18] was 0.48 µg/mL (≈ 1.69 µM).
With `CC(=O)NCCSC1=C(C(=O)O)N2C(=O)[C@H](C(C)O)[C@H]2C1` (stereo partly drawn) [PS-3A, 3-(2-acetamidoethylthio)-6-(1-hydroxyethyl)-7-oxo-1-azabicyclo[3.2.0]hept-2-ene-2-carboxylic acid, reference compound] the Solubility in acetone (solubility; acetone) was “substantially insoluble in acetone”, the Solubility in water (solubility; water) was “Readily soluble in water” and the MIC [2] was 1.25 µg/mL (≈ 3.98 µM). The MIC [3] was 20.1 µg/mL (≈ 63.9 µM), the MIC [4, 16] was 0.31 µg/mL (≈ 0.986 µM) and the MIC (Escherichia coli RGN 823) was 5 µg/mL (≈ 15.9 µM). It also gave an MIC (Serratia marcescens T55) of 20.1 µg/mL (≈ 63.9 µM), an MIC (Providencia sp. P8) of 5 µg/mL (≈ 15.9 µM) and an MIC (Serratia marcescens S18) of 10 µg/mL (≈ 31.8 µM). For the same molecule, the MIC (Sarcina lutea; [16]) was 0.63 µg/mL (≈ 2 µM), the MIC (Proteus vulgaris GN76) was 20.1 µg/mL (≈ 63.9 µM) and the MIC (Proteus mirabilis P6) was 20.1 µg/mL (≈ 63.9 µM). For the same molecule, the MIC (Alcaligenes faecalis A 1) was 1.25 µg/mL (≈ 3.98 µM), the MIC (Proteus sp. P22) was 20.1 µg/mL (≈ 63.9 µM) and the MIC [5] was 20.1 µg/mL (≈ 63.9 µM). The MIC [6, 16] was 2.5 µg/mL (≈ 7.95 µM), the MIC [7] was 10 µg/mL (≈ 31.8 µM) and the MIC [8] was 10 µg/mL (≈ 31.8 µM). For the same molecule, the MIC [9, 17] was 1.25 µg/mL (≈ 3.98 µM), the MIC (Enterobacter cloacae 45) was 10 µg/mL (≈ 31.8 µM) and the MIC [10] was 1.25 µg/mL (≈ 3.98 µM). It also gave an MIC (Escherichia coli K-12; K12, agar dilution, 35° C., 20 hours) of 2.5 µg/mL (≈ 7.95 µM), an MIC (Enterobacter sp. E8) of 5 µg/mL (≈ 15.9 µM) and an MIC [11, 18] of 0.08 µg/mL (≈ 0.254 µM). For the same molecule, the MIC (Proteus rettgeri P7) was 20.1 µg/mL (≈ 63.9 µM) and the MIC [12] was 20.1 µg/mL (≈ 63.9 µM).
`CC(=O)NCCSC1=C(C(=O)O)N2C(=O)[C@H](C(C)O)[C@H]2C1` (stereo partly drawn) [PS-3A . Na] showed an ED50 [14] of 4 mg/kg, a half-life ([15]; read-out: Half period) of 12 min and a Cmax ([15]; read-out: Maximum concentration) of 52 µg/mL.
Molecule `CCCCSC1=C(C(=O)[O-])N2C(=O)C(CC)C2C1.[Na+]` (stereo not drawn) [Example 68, Sodium 3-n-butylthio-6-ethyl-7-oxo-1-azabicyclo[3.2.0]hept-2-ene-2-carboxylate] has an MIC ([4]; 20 h) of 0.24 µg/mL, an MIC ([13]; B326, 20 h) of 15 µg/mL and an MIC (Sarcina lutea; 20 h) of 1.88 µg/mL. For the same molecule, the MIC ([6]; 20 h) was 0.12 µg/mL, the MIC ([9]; ATCC6633, 20 h) was 3.75 µg/mL and the MIC ([11]; B996, 20 h) was 0.24 µg/mL.

Reference: patent US4337199A, “Antibiotic β-lactam compounds, production thereof, and their use as antimicrobial agent” (Sanraku-Ocean Co., Ltd., priority 1978, dated 1982)
